One block for each compound: values may come before it.
Tests used:
[1] = molecular target: P-glycoprotein (P-gp/ABCB1) (Homo sapiens, UniProt P08183); experiment: Vesicular transport assay, P-gp-mediated NMQ uptake in HEK293 membrane vesicles; details: for P-gp-mediated NMQ transport, percentage of solvent control: 100 μM compound, NMQ 7 nM radio-labelled + 90 nM unlabelled, solvent control = 100% transport
Experimental: (§1) Human P-gp, BCRP, BSEP and MRP1-4 had previously been cloned into the Gateway pDONR221 vector. […] Gateway cloning was used to transfer the genes into a VSV-G improved pFastBacDual vector for mammalian cell transduction. The production of baculovirus was executed according to the Invitrogen Bac-to-Bac manual.
(§2) HEK293 cells were grown to 40% confluency in Dulbecco’s modified Eagle’s medium-GlutaMAX-I containing 10% foetal calf serum at 5% CO2 in 500 cm^2 triple flasks. Culture medium was removed and 25 mL of medium combined with 10 mL virus was added and incubated at RT for 20 min, followed by the addition of another 40 mL of complete medium including 5 mM sodium butyrate to enhance protein expression.
(§3) Cells were harvested three days post transduction by a 5-min centrifugation step at 3,000 g. Cells were resuspended in ice-cold hypotonic buffer (0.5 mM sodium phosphate, 0.1 mM EDTA, pH 7.0) containing protease inhibitors ([…] phenylmethylsulfonyl fluoride, 5 mg/ml aprotinin, 5 mg/ml leupeptin, 1 mg/ml pepstatin and 1 mg/ml E-64) and shaken at 4°C for 30 min. This lysate was centrifuged 100,000 xg for 30 min at 4°C, after which the pellet was homogenized in ice-cold TS buffer (10 mM Tris-HEPES and 250 mM sucrose, pH 7.4) supplemented with protease inhibitors described before using a tight-fitting Dounce homogenizer for 25 strokes. Two subsequent centrifugation steps at 4°C of firstly 20 min at 4,000 g followed by supernatant centrifugation for 60 min at 100,000 g ensured harvesting of the membrane fraction. The pellet was resuspended in ice-cold protease free TS buffer and passed 25 times through a 27-gauge needle to enhance membrane vesicle formation. Protein concentration in these vesicles was determined using the Bio-Rad protein assay, vesicles were flash-frozen in N2 and stored at -80°C.
(§4) A rapid filtration technique that has been described earlier was applied to evaluate uptake of transporter specific substrates into the vesicles; NMQ for P-gp, E1S for BCRP, E217βG for MRP1-4 and TCA for BSEP [20]. Briefly, 0.015-0.15 μCi of labelled substrate was combined with unlabelled substrates to a concentration of 0.1-1 μM in a 30 μL reaction mixture with 4 mM ATP, 10 mM MgCl2 and 7.5 μg total protein membrane vesicles in TS buffer. Transport was allowed by transfer of the plates to 37°C during 1–5 min, a time-point within the linear phase of time-dependent transport, as previously determined. Hereafter, the reaction was rapidly stopped by placing the plates back on ice and the addition of 150 μL ice-cold TS buffer. Samples were subsequently transferred to a 96-well filter plate that had been pre-incubated with TS buffer, and filtered using a multiscreen HTS-vacuum manifold filtration device (Millipore). Filters were washed and extracted, after which 2 mL scintillation fluid was added to each filter. Radioactive signal on the filters was determined by liquid scintillation counting. Negative controls included eYFP-transduced vesicles and AMP instead of ATP in the reaction mixture.
In the first screen, all anti-malarial compounds were added to the reaction mixture to evaluate transport inhibition at a concentration of 100 μM. […] Results were depicted and statistically analysed using Graphpad Prism, version 5.03. IC50 values were determined by nonlinear regression analysis of (log) inhibitor-response curves with variable slope.

[2] = molecular target: T1, breast cancer resistance protein (BCRP/ABCG2) (Homo sapiens, UniProt Q9UNQ0); experiment: Vesicular transport assay, BCRP-mediated estrone sulphate uptake in HEK293 membrane vesicles; details: for BCRP-mediated estrone sulphate transport, percentage of solvent control: 100 μM compound, estrone sulphate 74 nM, solvent control = 100% transport
T1 sequence (Q9UNQ0 1-655): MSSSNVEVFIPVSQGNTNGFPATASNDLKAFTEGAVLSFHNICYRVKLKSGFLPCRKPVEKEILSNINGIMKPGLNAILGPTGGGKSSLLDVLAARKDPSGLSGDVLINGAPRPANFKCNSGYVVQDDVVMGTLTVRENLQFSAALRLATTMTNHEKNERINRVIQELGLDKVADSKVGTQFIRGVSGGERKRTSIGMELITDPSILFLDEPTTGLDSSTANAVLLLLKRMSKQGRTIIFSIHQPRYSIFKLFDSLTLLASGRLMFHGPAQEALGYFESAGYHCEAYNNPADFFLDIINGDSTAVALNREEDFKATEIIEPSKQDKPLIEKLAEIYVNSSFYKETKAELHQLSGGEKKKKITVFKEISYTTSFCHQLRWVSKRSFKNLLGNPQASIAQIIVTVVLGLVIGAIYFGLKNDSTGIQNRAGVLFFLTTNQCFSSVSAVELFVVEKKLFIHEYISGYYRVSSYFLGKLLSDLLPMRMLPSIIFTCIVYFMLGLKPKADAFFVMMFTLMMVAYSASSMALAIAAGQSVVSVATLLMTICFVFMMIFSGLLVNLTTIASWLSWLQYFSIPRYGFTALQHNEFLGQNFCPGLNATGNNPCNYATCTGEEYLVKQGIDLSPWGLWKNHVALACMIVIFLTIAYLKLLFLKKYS
Experimental: as §1, §2, §3, §4
In the first screen, all anti-malarial compounds were added to the reaction mixture to evaluate transport inhibition at a concentration of 100 μM. […] When ATP-dependent uptake was reduced more than 66.7%, the compound was considered a potential inhibitor, and multiple concentrations were tested in the reaction mixture to determine the IC50 value. All concentrations were tested in duplicates or triplicates in two individual biological replicates containing vesicles of independent transductions. Results were depicted and statistically analysed using Graphpad Prism, version 5.03. IC50 values were determined by nonlinear regression analysis of (log) inhibitor-response curves with variable slope.

BCRP = details: cited from earlier work; for IC50: described as BCRP inhibitors, not substrates, read-out: IC50 of BCRP inhibition
[3] = system: T2, bile salt export pump (BSEP/ABCB11); experiment: Vesicular transport assay, BSEP-mediated taurocholic acid uptake in HEK293 membrane vesicles; type: biochemical, human; details: 100 μM compound; taurocholic acid 1 μM; solvent control = 100% transport
T2 construct: made in house; host or cells: HEK293 cells transduced with baculovirus; isolated membrane vesicles
Experimental: Cells were harvested three days post transduction by a 5-min centrifugation step at 3,000 g. Cells were resuspended in ice-cold hypotonic buffer (0.5 mM sodium phosphate, 0.1 mM EDTA, pH 7.0) containing protease inhibitors (100 mM phenylmethylsulfonyl fluoride, 5 mg/ml aprotinin, 5 mg/ml leupeptin, 1 mg/ml pepstatin and 1 mg/ml E-64) and shaken at 4°C for 30 min. This lysate was centrifuged 100,000 xg for 30 min at 4°C, after which the pellet was homogenized in ice-cold TS buffer (10 mM Tris-HEPES and 250 mM sucrose, pH 7.4) supplemented with protease inhibitors described before using a tight-fitting Dounce homogenizer for 25 strokes. Two subsequent centrifugation steps at 4°C of firstly 20 min at 4,000 g followed by supernatant centrifugation for 60 min at 100,000 g ensured harvesting of the membrane fraction. The pellet was resuspended in ice-cold protease free TS buffer and passed 25 times through a 27-gauge needle to enhance membrane vesicle formation. Protein concentration in these vesicles was determined using the Bio-Rad protein assay, vesicles were flash-frozen in N2 and stored at -80°C.
A rapid filtration technique that has been described earlier was applied to evaluate uptake of transporter specific substrates into the vesicles; NMQ for P-gp, E1S for BCRP, E217βG for MRP1-4 and TCA for BSEP [20]. Briefly, 0.015-0.15 μCi of labelled substrate was combined with unlabelled substrates to a concentration of 0.1-1 μM in a 30 μL reaction mixture with 4 mM ATP, 10 mM MgCl2 and 7.5 μg total protein membrane vesicles in TS buffer. Transport was allowed by transfer of the plates to 37°C during 1–5 min, a time-point within the linear phase of time-dependent transport, as previously determined [15–19]. Hereafter, the reaction was rapidly stopped by placing the plates back on ice and the addition of 150 μL ice-cold TS buffer. Samples were subsequently transferred to a 96-well filter plate that had been pre-incubated with TS buffer, and filtered using a multiscreen HTS-vacuum manifold filtration device (Millipore). […] Radioactive signal on the filters was determined by liquid scintillation counting. […]
All concentrations were tested in duplicates or triplicates in two individual biological replicates containing vesicles of independent transductions. […] IC50 values were determined by nonlinear regression analysis of (log) inhibitor-response curves with variable slope. […]

MRP3 = system: T3, MRP3; experiment: Vesicular transport assay, MRP3-mediated E217βG uptake in HEK293 membrane vesicles; type: biochemical, human; details: 100 μM compound; E217βG 150 nM; solvent control = 100% transport
T3 construct: made in house; host or cells: HEK293 cells transduced with baculovirus; isolated membrane vesicles
Source text: Some sequences did hold silent mutations of described polymorphisms.

MRP2 = system: T4, MRP2; experiment: Vesicular transport assay, MRP2-mediated E217βG uptake in HEK293 membrane vesicles; type: biochemical, human; details: 100 μM compound; E217βG 150 nM; solvent control = 100% transport
T4 construct: made in house; host or cells: HEK293 cells transduced with baculovirus; isolated membrane vesicles
Experimental: as §1
(§5) HEK293 cells were grown to 40% confluency in Dulbecco’s modified Eagle’s medium-GlutaMAX-I containing 10% foetal calf serum at 5% CO2 in 500 cm^2 triple flasks. […]
(§6) Cells were harvested three days post transduction by a 5-min centrifugation step at 3,000 g. […] Protein concentration in these vesicles was determined using the Bio-Rad protein assay, vesicles were flash-frozen in N2 and stored at -80°C.
(§7) A rapid filtration technique that has been described earlier was applied to evaluate uptake of transporter specific substrates into the vesicles; NMQ for P-gp, E1S for BCRP, E217βG for MRP1-4 and TCA for BSEP [20]. […] Transport was allowed by transfer of the plates to 37°C during 1–5 min, a time-point within the linear phase of time-dependent transport, as previously determined. […] Radioactive signal on the filters was determined by liquid scintillation counting. […]
(§8) In the first screen, all anti-malarial compounds were added to the reaction mixture to evaluate transport inhibition at a concentration of 100 μM. […] Results were depicted and statistically analysed using Graphpad Prism, version 5.03. […]

[4] = design: method as in PMID 21600016; details: 12-hour measurement interval; co-administration with ATO/PG (250/100 mg) prophylaxis, one HIV patient; cited from earlier work
MRP1 = system: T5, MRP1; experiment: Vesicular transport assay, MRP1-mediated E217βG uptake in HEK293 membrane vesicles; type: biochemical, human; details: 100 μM compound; E217βG 150 nM; solvent control = 100% transport
T5 construct: made in house; host or cells: HEK293 cells transduced with baculovirus; isolated membrane vesicles
Experimental: as §1, §5, §6, §7, §8

[5] = cited from earlier work
[6] = daily prophylactic dose of 250 mg

Chain of P-glycoprotein (P-gp/ABCB1) (P08183 whole entry): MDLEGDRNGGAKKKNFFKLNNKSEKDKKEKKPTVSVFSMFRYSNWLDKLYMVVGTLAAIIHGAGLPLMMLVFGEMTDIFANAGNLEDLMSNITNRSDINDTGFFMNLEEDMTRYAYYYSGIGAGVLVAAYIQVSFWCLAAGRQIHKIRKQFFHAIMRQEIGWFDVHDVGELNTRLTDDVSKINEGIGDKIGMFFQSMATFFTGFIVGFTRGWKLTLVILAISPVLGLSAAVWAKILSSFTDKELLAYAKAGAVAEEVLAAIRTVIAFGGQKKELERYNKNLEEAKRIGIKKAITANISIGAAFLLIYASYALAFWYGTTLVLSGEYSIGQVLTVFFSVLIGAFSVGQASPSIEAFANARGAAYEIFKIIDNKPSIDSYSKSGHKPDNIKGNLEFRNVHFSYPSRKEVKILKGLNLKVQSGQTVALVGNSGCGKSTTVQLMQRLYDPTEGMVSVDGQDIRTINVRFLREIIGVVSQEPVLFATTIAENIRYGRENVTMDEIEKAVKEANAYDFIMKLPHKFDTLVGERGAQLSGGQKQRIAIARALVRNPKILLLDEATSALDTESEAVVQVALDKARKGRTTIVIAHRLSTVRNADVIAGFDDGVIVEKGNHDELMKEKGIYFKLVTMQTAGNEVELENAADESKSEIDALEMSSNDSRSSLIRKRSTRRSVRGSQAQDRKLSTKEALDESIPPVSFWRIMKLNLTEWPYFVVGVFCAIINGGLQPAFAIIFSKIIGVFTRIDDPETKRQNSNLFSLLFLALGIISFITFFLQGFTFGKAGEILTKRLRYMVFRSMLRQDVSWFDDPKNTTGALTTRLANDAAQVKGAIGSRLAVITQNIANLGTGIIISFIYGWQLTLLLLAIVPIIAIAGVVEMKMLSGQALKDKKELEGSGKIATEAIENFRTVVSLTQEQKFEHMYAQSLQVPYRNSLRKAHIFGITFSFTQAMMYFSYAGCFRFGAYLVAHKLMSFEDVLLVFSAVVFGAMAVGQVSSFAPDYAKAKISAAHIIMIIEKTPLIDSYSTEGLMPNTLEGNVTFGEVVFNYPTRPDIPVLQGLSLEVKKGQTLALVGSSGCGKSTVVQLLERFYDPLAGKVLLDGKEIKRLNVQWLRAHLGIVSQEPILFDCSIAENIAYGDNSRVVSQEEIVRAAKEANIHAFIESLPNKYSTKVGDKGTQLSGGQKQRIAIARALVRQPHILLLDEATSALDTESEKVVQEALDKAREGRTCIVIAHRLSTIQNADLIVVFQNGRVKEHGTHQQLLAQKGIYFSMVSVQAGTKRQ

Compound: [H]/N=C(\N/C(=N/[H])Nc1ccc(Cl)cc1)NC(C)C [PG, proguanil]
P-gp-mediated NMQ transport, percentage of solvent control [1]: 76%
IC50 [2]: 118 µM
BCRP-mediated estrone sulphate transport, percentage of solvent control [2]: 36%

Compound: COC(=O)N[C@H](C(=O)N[C@@H](Cc1ccccc1)[C@@H](O)CN(Cc1ccc(-c2ccccn2)cc1)NC(=O)[C@@H](NC(=O)OC)C(C)(C)C)C(C)(C)C [atazinavir]
BCRP-mediated transport inhibition (in words) (BCRP): inhibitors of BCRP-mediated transport

Compound: Cc1cccc(C)c1OCC(=O)N[C@@H](Cc1ccccc1)[C@@H](O)C[C@H](Cc1ccccc1)NC(=O)[C@H](C(C)C)N1CCCNC1=O [lopinavir]
BCRP-mediated transport inhibition (in words) (BCRP): inhibitors of BCRP-mediated transport

Compound: C[C@@H]1CC[C@H]2[C@@H](C)C(=O)O[C@@H]3O[C@@]4(C)CC[C@@H]1[C@]32OO4 [ART, artemisinin]
BSEP-mediated taurocholic acid transport, percentage of solvent control [3]: 117%
MRP3-mediated estradiol 17-β-D glucuronide transport, percentage of solvent control (MRP3): 122%
MRP2-mediated estradiol 17-β-D glucuronide transport, percentage of solvent control (MRP2): 151%

Compound: O=C1Nc2ccc(Cl)cc2[C@@](C#CC2CC2)(C(F)(F)F)O1 [efavirenz]
BCRP-mediated transport inhibition (in words) (BCRP): inhibitors of BCRP-mediated transport

Compound: Cc1cc(C#N)cc(C)c1Oc1nc(Nc2ccc(C#N)cc2)nc(N)c1Br [etravirine]
Increase of AUC [4]: 55%
IC50 (BCRP): 1 µM

Compound: CC(C)(C)NC(=O)[C@@H]1C[C@@H]2CCCC[C@@H]2CN1C[C@@H](O)[C@H](Cc1ccccc1)NC(=O)[C@H](CC(N)=O)NC(=O)c1ccc2ccccc2n1 [saquinavir]
Increase of AUC [4]: 274%
IC50 (BCRP): 19.5 µM

Compound: O=C1C(O)=C([C@H]2CC[C@H](c3ccc(Cl)cc3)CC2)C(=O)c2ccccc21 [ATO, atovaquone]
BSEP-mediated taurocholic acid transport, percentage of solvent control [3]: 54%
IC50 [2]: 0.23 µM
BCRP-mediated estrone sulphate transport, percentage of solvent control [2]: 22%
MRP2-mediated estradiol 17-β-D glucuronide transport, percentage of solvent control (MRP2): 162%
MRP1-mediated estradiol 17-β-D glucuronide transport, percentage of solvent control (MRP1): 141%
Maximal blood plasma concentration [5, 6]: around 14 μM
Maximal blood plasma concentration, range [5, 6]: 8 to 26 µM

Compound: C=C[C@H]1C[N@@]2CC[C@H]1C[C@H]2[C@H](O)c1ccnc2ccc(OC)cc12 [Q, quinine]
Maximal plasma concentration ([5]; seven-day regimen of 10 mg/kg oral dose three times daily of quinine sulphate): 30 µM

P-gp-mediated NMQ transport, percentage of solvent control [1]: 50%
BCRP-mediated estrone sulphate transport, percentage of solvent control [2]: 69%
Compound: CCN(CC)CCCC(C)Nc1ccnc2cc(Cl)ccc12 (stereo not shown) [CQ, chloroquine]

BCRP-mediated estrone sulphate transport, percentage of solvent control [2]: 44%
Compound: CCCCN(CCCC)CC(O)c1cc(Cl)cc2c1-c1ccc(Cl)cc1/C2=C/c1ccc(Cl)cc1 (stereo not shown) [L, lumefantrine]

Compound: Cc1nnc(C(=O)NC(C)(C)c2nc(C(=O)NCc3ccc(F)cc3)c(O)c(=O)n2C)o1 [raltegravir]
BCRP inhibition (in words) (BCRP): do not inhibit BCRP

P-gp-mediated NMQ transport, percentage of solvent control [1]: 112%
BCRP-mediated estrone sulphate transport, percentage of solvent control [2]: 70%
Compound: C[C@H]1[C@@H](O)O[C@@H]2O[C@@]3(C)CC[C@H]4[C@H](C)CC[C@@H]1[C@@]24OO3 [DHA, dihydroartemisinin]
BSEP-mediated taurocholic acid transport, percentage of solvent control [3]: 114%
MRP3-mediated estradiol 17-β-D glucuronide transport, percentage of solvent control (MRP3): 121%

Compound: maraviroc
BCRP inhibition (in words) (BCRP): do not inhibit BCRP

Compound: OC(c1cc(C(F)(F)F)nc2c(C(F)(F)F)cccc12)C1CCCCN1 (stereo not shown) [MQ, mefloquine]
BSEP-mediated taurocholic acid transport, percentage of solvent control [3]: 72%
IC50 [1]: 72 µM
P-gp-mediated NMQ transport, percentage of solvent control [1]: 30%
MRP3-mediated estradiol 17-β-D glucuronide transport, percentage of solvent control (MRP3): 70%
IC50 [2]: 18 µM
BCRP-mediated estrone sulphate transport, percentage of solvent control [2]: 8.5%
MRP1-mediated estradiol 17-β-D glucuronide transport, percentage of solvent control (MRP1): 50%

Reference: PMC4172838 (Malaria Journal, 2014)
